Data as given in the supplement of paper PMC10307832.

Tests used:
Assay in all cases: relative viability (nuclei count vs DMSO), 5 days (fraction); higher = more cells survive
Quizartinib = compound: CC(C)(C)c1cc(NC(=O)Nc2ccc(-c3cn4c(n3)sc3cc(OCCN5CCOCC5)ccc34)cc2)no1 [Quizartinib]
Outline: (§1)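 Viability was defined as treated-well nuclei divided by vehicle-well nuclei, with the median taken over replicate plates. Cells from lung cancer lines sat overnight at 37 °C in 1536-well plates, received five √10-spaced library-drug doses by pinning on vehicle-anchored plates, and grew 5 days without medium change before one-step fixation, permeabilisation and Hoechst staining, 4× imaging and MetaXpress nuclear counts. Only plates with control CV under 25% and at least one doubling were kept.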

YM155 = compound: COCC[n+]1c2c(n(Cc3cnccn3)c1C)C(=O)c1ccccc1C2=O [YM155]
Outline: as §1

YM155 + Phenformin = compound: COCC[n+]1c2c(n(Cc3cnccn3)c1C)C(=O)c1ccccc1C2=O [YM155] + N=C(N)NC(=N)NCCc1ccccc1 [Phenformin] (partner 250 µM)
Outline: (§2)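 Values are medians from duplicate plates. Each reflects relative viability, defined as the nuclei count of treated wells over that of vehicle wells. Lung cancer cell lines in 1536-well plates were pin-tool dosed one day after seeding with one drug alone or with a fixed anchor-drug dose plus five library-drug doses (not always all listed) in √10 steps, then fixed, stained and imaged at 4× after 5 days.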

Quizartinib + Navitoclax = compound: CC(C)(C)c1cc(NC(=O)Nc2ccc(-c3cn4c(n3)sc3cc(OCCN5CCOCC5)ccc34)cc2)no1 [Quizartinib] + CC1(C)CCC(c2ccc(Cl)cc2)=C(CN2CCN(c3ccc(C(=O)NS(=O)(=O)c4ccc(N[C@H](CCN5CCOCC5)CSc5ccccc5)c(S(=O)(=O)C(F)(F)F)c4)cc3)CC2)C1 [Navitoclax] (partner 0.5 µM)
Outline: as §2

| Cell Line | relative viability (Quizartinib; 0.001 µM) | relative viability (Quizartinib; 0.003162 µM) | relative viability (Quizartinib; 0.01 µM) | relative viability (Quizartinib; 0.03162 µM) | relative viability (Quizartinib; 0.1 µM) | relative viability (YM155; 0.002 µM) | relative viability (YM155; 0.006325 µM) | relative viability (YM155; 0.02 µM) | relative viability (YM155; 0.06325 µM) | relative viability (YM155 + Phenformin; first compound 0.002 µM) | relative viability (YM155 + Phenformin; first compound 0.006325 µM) | relative viability (YM155 + Phenformin; first compound 0.02 µM) | relative viability (YM155 + Phenformin; first compound 0.06325 µM) | relative viability (Quizartinib + Navitoclax; first compound 0.001 µM) | relative viability (Quizartinib + Navitoclax; first compound 0.003162 µM) | relative viability (Quizartinib + Navitoclax; first compound 0.01 µM) | relative viability (Quizartinib + Navitoclax; first compound 0.03162 µM) | relative viability (Quizartinib + Navitoclax; first compound 0.1 µM) |
| --- | --- | --- | --- | --- | --- | --- | --- | --- | --- | --- | --- | --- | --- | --- | --- | --- | --- | --- |
| NCI-H1651 | 0.88 | 0.885 | 1.06 | 0.924 | 0.988 | 0.929 | 0.992 | 0.974 | 0.998 | 0.316 | 0.366 | 0.326 | 0.377 | 0.848 | 0.895 | 0.963 | 0.845 | 0.995 |
| NCI-H2347 | 0.961 | 1.06 | 1.07 | 0.965 | 1.12 | 0.928 | 0.994 | 1.07 | 0.868 | 0.489 | 0.395 | 0.582 | 0.448 | 0.675 | 0.886 | 0.91 | 0.845 | 0.994 |
| LC-2-ad | 0.827 | 1.02 | 0.972 | 0.863 | 0.892 | 0.914 | 0.978 | 0.972 | 0.913 | 0.528 | 0.616 | 0.581 | 0.535 | 0.317 | 0.446 | 0.518 | 0.453 | 0.394 |
| NCI-H3122 | 0.885 | 0.977 | 1.07 | 1.01 | 0.982 | 0.984 | 0.992 | 1.01 | 0.976 | 0.362 | 0.36 | 0.384 | 0.364 | 0.93 | 0.981 | 1.02 | 1.03 | 1.02 |
| NCI-H1563 | 1 | 0.889 | 0.989 | 0.646 | 0.949 | 0.971 | 0.966 | 1.07 | 0.983 | 0.632 | 0.682 | 0.63 | 0.65 | – | – | – | – | – |
| HCC-78 | 0.967 | 1.03 | 0.911 | 0.865 | 0.988 | 0.898 | 1.08 | 1.08 | 1.05 | 0.638 | 0.73 | 0.779 | 0.76 | 0.813 | 0.868 | 0.766 | 0.598 | 0.842 |
| LK-2 | 0.943 | 0.891 | 1.02 | 0.944 | 1.15 | 0.893 | 1.06 | 1.03 | 1.16 | 0.356 | 0.571 | 0.447 | 0.379 | 0.827 | 0.803 | 1.09 | 0.77 | 0.861 |
| RERF-LC-KJ | 0.954 | 0.926 | 1.03 | 0.99 | 0.915 | 1 | 0.973 | 1.01 | 1.01 | 0.386 | 0.432 | 0.462 | 0.463 | 0.854 | 0.699 | 1.08 | 0.918 | 0.688 |
| NCI-H1944 | 0.938 | 0.918 | 0.889 | 0.918 | 0.944 | 0.957 | 0.889 | 1.02 | 1.03 | 0.208 | 0.17 | 0.202 | 0.205 | 0.888 | 1.07 | 1.06 | 1.08 | 1.07 |
| ChaGo-K-1 | 0.773 | 1.05 | 1.01 | 0.851 | 1.05 | 0.906 | 1 | 0.987 | 0.918 | 0.469 | 0.488 | 0.519 | 0.578 | 0.439 | 1.02 | 1.02 | – | 1.52 |
| EBC-1 | 0.891 | 0.871 | 0.981 | 0.922 | 0.977 | 0.954 | 0.971 | 1.07 | 1 | – | – | – | – | 0.411 | 0.436 | 0.524 | 0.479 | 0.527 |
| NCI-H522 | 0.874 | 1.09 | 1.04 | 0.901 | 0.97 | 0.913 | 0.923 | 1.08 | 0.997 | 0.67 | 0.604 | 0.628 | 0.659 | – | – | – | – | – |
| NCI-H1623 | 0.845 | 1.12 | 0.905 | 0.977 | 1.09 | 0.934 | 1.29 | 1.02 | 1.02 | 0.599 | 0.6 | 0.643 | 0.604 | – | – | – | – | – |
| NCI-H1703 | 0.847 | 0.527 | 0.256 | 0.264 | 0.316 | 0.808 | 0.807 | 0.767 | 0.444 | – | – | – | – | 0.978 | 0.474 | 0.234 | 0.214 | 0.296 |
| NCI-H2342 | 0.953 | 0.992 | 1.02 | 0.88 | 1.06 | 0.947 | 0.997 | 0.996 | 0.949 | 0.581 | 0.612 | 0.584 | 0.65 | – | – | – | – | – |
| ABC-1 | 0.771 | 0.825 | 0.817 | 0.673 | 0.913 | 0.707 | 0.61 | 0.396 | 0.219 | 0.271 | 0.239 | 0.233 | 0.207 | – | – | – | – | – |
| NCI-H358 | 0.892 | 0.979 | 0.841 | – | 0.873 | 0.831 | 0.954 | 1.07 | 0.34 | 0.325 | 0.315 | 0.37 | 0.351 | – | – | – | – | – |
| NCI-H1299 | 0.949 | 1.01 | 1.02 | 1.03 | 1.03 | 0.984 | 0.977 | 1.01 | 1 | – | – | – | – | – | 1.03 | 1.02 | 1.01 | 1.04 |
| NCI-H650 | 0.849 | 0.863 | 0.851 | 0.833 | 0.967 | 0.953 | 0.88 | 1.01 | 0.909 | 0.417 | 0.477 | 0.523 | 0.447 | – | – | – | – | – |
| Calu-6 | 0.902 | 0.982 | 1.05 | 0.879 | 1.02 | 0.992 | 0.996 | 0.557 | 0.186 | – | – | – | – | 0.749 | 0.877 | 0.923 | 0.701 | 0.759 |
